Patent US8288379B2, “Thia-triaza-cyclopentazulenes” (Boehringer Ingelheim International GmbH, priority 2009, dated 2012)

Tests used:
[1] = target: T1, FRAP1 (mTOR) kinase (Homo sapiens, UniProt P42345); experiment: Inhibition of mTOR-induced p-4E-BP1 phosphorylation (TR-FRET mTOR Activity Kit; Invitrogen); format: biochemical; details: 400 nM GFP-4E-BP1 substrate, ~150 ng/mL mTOR, one hour at room temperature
T1 construct: purchased Invitrogen PV4753
Outline: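 LanthaScreen TR-FRET: mTOR with GFP-4E-BP1 substrate in HEPES pH 7.5 buffer with 10 mM MnCl2, compound preincubated 30 min at RT, then ATP added and reacted 1 h at 20-25 °C. Stopped with EDTA plus Tb-anti-p4E-BP1 (pThr46), 1 h; GFP/Tb emission ratio over a 16-point curve, sigmoidal fit for IC50.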

[2] = test system: PC-3 cells; experiment: Inhibition of proliferation: CyQuant PC-3; format: cell-based; details: 72 h; PC-3 human prostate carcinoma cells, incubated with compounds for 3 days, CyQuant NF DNA dye
Experimental: • GFP-4E-BP1 substrate; Invitrogen order no. PV4759 • Lanthascreen Tb-anti-p4E-BP1 (pThr46) Antibody Kit; Invitrogen order no. PV4758 • FRAP1 (mTOR) kinase; Invitrogen order no. […] Preparation of Reagents: Note: Thaw and keep mTOR, the substrate, ATP, and the antibody on ice prior to making working dilutions. Working dilutions of these components can be kept at room temperature for short periods of time the day of use. 1. Add 2 ml of 5× Assay Buffer to 8 ml water to prepare 10 ml of 1× Assay Buffer. Note: The concentration of 1× Assay Buffer is 50 mM HEPES pH 7.5, 0.01% Polysorbate 20, 1 mM EGTA, and 10 mM MnCl2. 2. Prepare Antibody/EDTA Solution by first adding 2.75 n1 of Tb-anti p4E-BP1 Antibody to 2397 n1 of LanthaScreen™ TR-FRET Dilution Buffer. Then, add 100 n1 of 0.5 M EDTA. 3. Prepare 4× Substrate/Enzyme Solution by first adding 72 n1 of GFP-4E-BP1 (22 nM) to 926 n1 of 1× Assay Buffer. Then, add 1.6 n1 of mTOR (0.45 mg/mL). 4. Prepare ATP Solution by adding 3.2 n1 of 10 mM ATP to 1997 n1 of 1× Assay Buffer. Serial Dilution of Inhibitors (16 Point Curve): Note: It is recommended that inhibitors be serially diluted in DMSO, then diluted to a 4× working concentration with 1× Assay Buffer. The below procedure describes dilution of compounds in a 96-well format prior to transfer to a 384-well format for kinase assays. This procedure calls for dilution of the compounds in 2 adjacent columns of a 96-well plate, which upon transfer to a single column of a 384-well plate with an 8-channel pipette will align the samples in order of concentration. 1. Dispense 40 n1 of DMSO to two adjacent columns of a 96 well plate per compound (e.g. columns 1 and 2). 2. Add 10 n1 of inhibitor stock (10 mM) to the first well of the first column (A1) and mix. 3. Remove 10 n1 from A1 and transfer to the adjacent well in the next column (B1) and mix. 4. Remove 10 n1 from B1 and transfer to the next well in the first column (B2) and mix. 5. Repeat this dilution pattern through well H1 and leave the last well (H2) as DMSO only. 6. Remove 4 n1 of diluted compounds and add to 96 n1 of 1× Assay Buffer in a 96-well plate making 4× compound dilutions. Kinase Reaction: 1. Add 2.5 μl of 4× compound dilutions from the first column of the 96-well plate to every other well of column 1 of a 384-well plate with an 8-channel pipette. Repeat for columns 2 and 3. 2. Add 2.5 n1 of 4× compound dilutions from the second column of the 96-well plate to the empty wells of column 1 of the 384-well plate with an 8-channel pipette. Repeat for columns 2 and 3. Note: This procedure aligns the compound dilutions in order of concentration. 3. Add 2.5 n1 of 4× Enzyme/Substrate Solution to all columns 1-6. 4. Preincubate for 30 min. at RT (shaker). 5. Add 5 n1 of ATP Solution to all wells to start reactions. 6. Shake the assay plate on a plate shaker for 30 seconds. 7. Incubate the assay plate for one hour at room temperature (20-25° C.). Stop Step and Fluorescence Detection: 1. Add 10 n1 of Antibody/EDTA Solution to each well in columns 1-9. 2. Shake the assay plate on a plate shaker for 30 seconds. 3. Incubate the assay plate for one hour at room temperature (20-25° C.). 4. Measure the GFP (FRET) and terbium (reference) emission signals on a fluorescence plate reader (e.g. Perkin Elmer Envision). Data Analysis: 1. Calculate the emission ratio for each sample by dividing the GFP (FRET) signal by the terbium (reference) signal. 2. Plot the concentration of each compound versus the emission ratio. Determine the concentration of compound required to reach 50% of the maximum signal (IC50). Determination of IC50 values can be obtained by curve fitting (sigmoidal dose response, variable slope) using Prism software from GraphPad). Inhibition of Proliferation: CyQuant PC-3 Description:
The CyQuant NF assay is based on measurement of cellular DNA content via fluorescent dye binding. Because cellular DNA content is highly regulated, it is closely proportional to cell number. […]

T1 sequence (P42345 1360-2549 limits assumed): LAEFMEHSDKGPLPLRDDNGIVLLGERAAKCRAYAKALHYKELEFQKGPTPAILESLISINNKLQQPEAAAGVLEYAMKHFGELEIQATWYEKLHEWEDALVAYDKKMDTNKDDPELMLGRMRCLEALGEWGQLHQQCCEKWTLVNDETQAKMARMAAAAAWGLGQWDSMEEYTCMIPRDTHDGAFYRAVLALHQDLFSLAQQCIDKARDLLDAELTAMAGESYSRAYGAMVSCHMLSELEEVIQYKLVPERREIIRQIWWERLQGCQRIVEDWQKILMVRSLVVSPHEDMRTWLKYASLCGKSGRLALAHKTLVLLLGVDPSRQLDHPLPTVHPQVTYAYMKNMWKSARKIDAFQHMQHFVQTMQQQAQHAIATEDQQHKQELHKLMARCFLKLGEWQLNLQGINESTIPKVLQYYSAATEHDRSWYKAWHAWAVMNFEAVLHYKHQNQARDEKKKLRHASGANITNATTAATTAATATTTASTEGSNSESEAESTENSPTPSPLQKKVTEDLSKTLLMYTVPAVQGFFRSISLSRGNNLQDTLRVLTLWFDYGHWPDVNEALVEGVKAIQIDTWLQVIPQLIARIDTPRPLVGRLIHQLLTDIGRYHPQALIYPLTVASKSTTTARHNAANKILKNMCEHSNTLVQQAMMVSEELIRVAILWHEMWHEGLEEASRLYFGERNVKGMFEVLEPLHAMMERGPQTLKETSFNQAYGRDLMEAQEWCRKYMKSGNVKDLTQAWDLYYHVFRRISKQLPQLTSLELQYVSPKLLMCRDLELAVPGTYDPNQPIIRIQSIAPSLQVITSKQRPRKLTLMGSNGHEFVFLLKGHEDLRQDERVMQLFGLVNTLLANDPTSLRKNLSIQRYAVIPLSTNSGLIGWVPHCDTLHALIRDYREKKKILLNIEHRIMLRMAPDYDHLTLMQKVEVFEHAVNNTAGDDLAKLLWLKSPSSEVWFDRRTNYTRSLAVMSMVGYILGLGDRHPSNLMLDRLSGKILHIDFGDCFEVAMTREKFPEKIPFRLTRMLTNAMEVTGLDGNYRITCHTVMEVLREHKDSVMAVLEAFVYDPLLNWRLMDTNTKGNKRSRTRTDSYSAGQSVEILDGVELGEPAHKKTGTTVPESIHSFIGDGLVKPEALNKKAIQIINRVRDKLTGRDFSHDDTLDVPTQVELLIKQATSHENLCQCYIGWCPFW

SMILES	IC50 [1] [nM]	EC50 [2] [nM]
CC(=O)Nc1nc2c(s1)-c1c(c(-c3ccc(N)nc3)nn1C1CCCOC1)CCC2 (stereo not drawn) [Example B-65, N-[3-(6-Amino-pyridin-3-yl)-1-(tetrahydro-pyran-3-yl)-1,4,5,6-tetrahydro-9-thia-1,2,7-triaza-cyclopenta[e]azulen-8-yl]-acetamide]	13	75
CC(=O)Nc1nc2c(s1)-c1c(c(-c3ccc(N)nc3)nn1C(C)C)CCC2 [Example B-66, N-[3-(6-Amino-pyridin-3-yl)-1-isopropyl-1,4,5,6-tetrahydro-9-thia-1,2,7-triaza-cyclopenta[e]azulen-8-yl]-acetamide]	12	90
CCNc1ccc(-c2nn(-c3ccccc3C)c3c2CCCc2nc(NC(=O)NC)sc2-3)cn1 [Example B-68]	166	604
CCNc1ccc(-c2nn(-c3ccccc3C)c3c2CCCc2nc(NC(=O)CNC)sc2-3)cn1 [Example B-69]	145	229
CCNc1ccc(-c2nn(-c3ccccc3C)c3c2CCCc2nc(NC(=O)CCCN(C)C)sc2-3)cn1 [Example B-70]	62	284
CCNc1ccc(-c2nn(-c3ccccc3C)c3c2CCCc2nc(NC(=O)CCOC)sc2-3)cn1 [Example B-71]	138	318
CCNc1ccc(-c2nn(-c3ccccc3C)c3c2CCCc2nc(NC(=O)CCc4nccn4C)sc2-3)cn1 [Example B-72]	84	298
CCNc1ccc(-c2nn(-c3ccccc3Cl)c3c2CCCc2nc(NC(C)=O)sc2-3)cn1 [Example B-75]	49	113
CCNc1ccc(-c2nn(-c3ccccc3F)c3c2CCCc2nc(NC(C)=O)sc2-3)cn1 [Example B-76, N-[3-(6-Ethylamino-pyridin-3-yl)-1-(2-fluoro-phenyl)-1,4,5,6-tetrahydro-9-thia-1,2,7-triaza-cyclopenta[e]azulen-8-yl]-acetamide]	31	79
CCNc1ccc(-c2nn(-c3ccncc3C)c3c2CCCc2nc(NC(C)=O)sc2-3)cn1 [Example B-77, N-[3-(6-Ethylamino-pyridin-3-yl)-1-(3-methyl-pyridin-4-yl)-1,4,5,6-tetrahydro-9-thia-1,2,7-triaza-cyclopenta[e]azulen-8-yl]-acetamide]	34	126
CCNc1ccc(-c2nn(-c3ccccc3OC)c3c2CCCc2nc(NC(C)=O)sc2-3)cn1 [Example B-78]	136	249
CCNc1ccc(-c2nn(-c3ccccc3CC)c3c2CCCc2nc(NC(C)=O)sc2-3)cn1 [Example B-79]	65	62
CNc1ccc(-c2nn(-c3ccccc3F)c3c2CCCc2nc(NC(C)=O)sc2-3)cn1 [Example B-81, N-[1-(2-Fluoro-phenyl)-3-(6-methylamino-pyridin-3-yl)-1,4,5,6-tetrahydro-9-thia-1,2,7-triaza-cyclopenta[e]azulen-8-yl]-acetamide]	41	23
CNc1ccc(-c2nn(CCN3CCOCC3)c3c2CCCc2nc(NC(C)=O)sc2-3)cn1 [Example B-82, N-[3-(6-Methylamino-pyridin-3-yl)-1-(2-morpholin-4-yl-ethyl)-1,4,5,6-tetrahydro-9-thia-1,2,7-triaza-cyclopenta[e]azulen-8-yl]-acetamide]	33	49
CNc1ccc(-c2nn(C3CCCOC3)c3c2CCCc2nc(NC(C)=O)sc2-3)cn1 (stereo not drawn) [Example B-83, N-[3-(6-Methylamino-pyridin-3-yl)-1-(tetrahydro-pyran-3-yl)-1,4,5,6-tetrahydro-9-thia-1,2,7-triaza-cyclopenta[e]azulen-8-yl]-acetamide]	65	41
CNc1ccc(-c2nn(-c3ccncc3C)c3c2CCCc2nc(NC(C)=O)sc2-3)cn1 [Example B-85, N-[3-(6-Methylamino-pyridin-3-yl)-1-(3-methyl-pyridin-4-yl)-1,4,5,6-tetrahydro-9-thia-1,2,7-triaza-cyclopenta[e]azulen-8-yl]-acetamide]	24	76
CNc1ccc(-c2nn(CC(C)C)c3c2CCCc2nc(NC(C)=O)sc2-3)cn1 [Example B-86, N-[1-isobutyl-3-(6-methylamino-pyridin-3-yl)-1,4,5,6-tetrahydro-9-thia-1,2,7-triaza-cyclopenta[e]azulen-8-yl]-acetamide]	32	47
CNc1ccc(-c2nn(-c3ccccc3)c3c2CCCc2nc(NC(C)=O)sc2-3)cn1 [Example B-87, N-[3-(6-Methylamino-pyridin-3-yl)-1-phenyl-1,4,5,6-tetrahydro-9-thia-1,2,7-triaza-cyclopenta[e]azulen-8-yl]-acetamide]	55	21
CNc1ccc(-c2nn(-c3cccc(OC)c3)c3c2CCCc2nc(NC(C)=O)sc2-3)cn1 [Example B-89]	57	72
CC(=O)Nc1nc2c(s1)-c1c(c(-c3ccc(C)nc3)nn1-c1ccncc1C)CCC2 [Example B-90]	118	422
CCCn1nc(-c2ccc(C)nc2)c2c1-c1sc(NC(C)=O)nc1CCC2 [Example B-92]	152	221
CN(C)C(=O)Nc1nc2c(s1)-c1c(c(-c3ccc(N)nc3)nn1-c1ccccc1)CCC2 [Example B-96, 3-[3-(6-Amino-pyridin-3-yl)-1-phenyl-1,4,5,6-tetrahydro-9-thia-1,2,7-triaza-cyclopenta[e]azulen-8-yl]-1,1-dimethyl-urea]	67	289
NCC(=O)Nc1nc2c(s1)-c1c(c(-c3ccc(N)nc3)nn1-c1ccccc1F)CCC2 [Example B-101]	22	96
COCCC(=O)Nc1nc2c(s1)-c1c(c(-c3ccc(N)nc3)nn1-c1ccccc1C)CCC2 [Example B-103, N-[3-(6-Amino-pyridin-3-yl)-1-o-tolyl-1,4,5,6-tetrahydro-9-thia-1,2,7-triaza-cyclopenta[e]azulen-8-yl]-3-methoxy-propionamide]	37	87
CNc1ccc(-c2nn(-c3ccccc3C)c3c2CCCc2nc(NC(=O)CCOC)sc2-3)cn1 [Example B-106, 3-Methoxy-N-[3-(6-methylamino-pyridin-3-yl)-1-o-tolyl-1,4,5,6-tetrahydro-9-thia-1,2,7-triaza-cyclopenta[e]azulen-8-yl]-propionamide]	69	178
CNc1ccc(-c2nn(-c3ccccc3C)c3c2CCCc2nc(NC(=O)CCC(=O)N(C)C)sc2-3)cn1 [Example B-108]	102	106
CNc1ccc(-c2nn(-c3ccccc3C)c3c2CCCc2nc(NC(=O)CCc4ncc[nH]4)sc2-3)cn1 [Example B-109]	49	162
